In general, IC50 refers to the concentration needed to halve the response being measured. Lower therefore signals greater potency.

Test [1] concerns type A influenza virus (H1N1 subtype). The test can be described thus: microbe, parasite or virus in culture. The class given is cell-based. The settings on record: H1N1, Calu-3, 48 h.
Test [2] deals with Ebola virus-derived trVLP. The test is described as follows: microbe, parasite or virus in culture. Type of test: cell-based. The settings on record: Zaire ebolavirus, Huh-7, 48 h.

For the molecule `NC(=O)c1nc(F)c[nH]c1=O` [Favipiravir], in test [1], the IC50 is 9.5 µM.
On to `CCC(CC)COC(=O)[C@H](C)N[P@](=O)(OC[C@H]1O[C@@](C#N)(c2ccc3c(N)ncnn23)[C@H](O)[C@@H]1O)Oc1ccccc1` [Remdesivir], for which, in test [2], the 50% inhibitory concentration (IC50) stood at 0.1 µM. This counts as sub-micromolar.

(Values after patent US20250387369A1 (priority 2022, published 2025).)
